Drawing on patent publication US4175081A, “5-Substituted thiadiazole ureas” (priority 1977, dated 1979), this text covers pest or weed control for nine molecules.

Test [1] has as its system Barnyard grass (BG). Kind of test: Pre-emergence herbicide test. The conditions noted are these: Echinochloa crus-galli, 336 h, 4 lb/acre, two weeks after treatment. The class given is in vivo. The method, boiled down: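 Greenhouse pre-emergence spray test: pots seeded one day before treatment received compound at rates of 8 or 4 lb/acre (38 gal/acre). Visual injury/control scores for Echinochloa crus-galli taken at two weeks, with watering by sub-irrigation only.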

The test system of test [2] is Turnip (TP). Kind of test: Pre-emergence herbicide test. The note with it: Brassica rapa, pre-emergence, 336 h; 4 lb/acre; two weeks after treatment. It is filed as in vivo, Brassica sp. The method, boiled down: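 In this pre-emergence greenhouse test, turnip was seeded on the surface of potting soil in 3' plastic pots, lightly covered with screened soil, and watered from below. One day later the pots were sprayed in a belt-fed spray hood. Watering continued only by sub-irrigation, and percent control was visually scored two weeks after treatment.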

In test [3] the test system is Bean (BN). Kind of test: Post-emergence herbicide test. The conditions noted are these: Phaseolus vulgaris, post-emergence, 336 h, two weeks after treatment; for pest or weed control at 4483.4 g/ha: 4 lb/acre. The class given is in vivo, Phaseolus vulgaris var. Black Valentine. The method, boiled down: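 Bean seedlings (Phaseolus vulgaris var. Black Valentine) were grown in potting soil in 3' pots until the primary leaves expanded. They were then sprayed under a hood with a removable belt and fixed nozzle, using 50 ml formulations. Afterward they were returned to the greenhouse and watered only by sub-irrigation. Percent control was judged visually two weeks after treatment.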

Test [4] has as its system Crabgrass (CG). Briefly: Pre-emergence herbicide test. The class given is in vivo, Digitaria sanquinalis. The note with it: Digitaria sanguinalis, pre-emergence, 336 h; 4 lb/acre; two weeks after treatment. The method, boiled down: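 Crabgrass (Digitaria sanquinalis) was surface seeded in 3' plastic pots of potting soil, covered with screened soil, and watered by sub-irrigation in greenhouse trays. Pots were seeded one day before spraying in a hood with a moving belt and fixed nozzle. Plants stayed in the greenhouse on sub-irrigation, and pre-emergence control was rated visually two weeks after treatment.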

Test [5] deals with Corn (CN). Briefly: Pre-emergence herbicide test. It is filed as in vivo. The conditions noted are these: Zea mays, 336 h, 4 lb/acre, two weeks after treatment. On the procedure: (§1) All crop and weed species were planted individually in 3' plastic pots containing potting soil. Four seeds each of corn, cotton, and snapbeans were seeded to a depth equal to the diameter of the seed. All other species were surface seeded and sprinkled with screened soil in an amount sufficient to cover the seed. Immediately after planting, all pots were watered by sub-irrigation in greenhouse trays. Pots for the pre-emergence phase were seeded one day before treatment.
(§2) Compounds were tested at rates of application equivalent to 8 lbs. of actual compound per acre in a spray volume of 38 gallons per acre. Spray hood constants required to deliver the above volume are as follows:
(§3) Formulations for spray applications were prepared in 50 ml volumes with the following three components:
(§4) Formulations for the 4 lbs/acre rate were prepared by adjusting the amount of active ingredient accordingly.
(§5) Spray applications were made in a hood containing a removable belt and fixed spray nozzle. For passage through the spray hood, one pot of each specie (pre-emergence phase) was placed on the rear half of the flat. Treatments were removed to the greenhouse after spraying. Watering during the observation period was done only by sub-irrigation.
(§6) Two weeks after treatment, pre- and post-emergence injury or control was visually rated, and the results were as shown in the following tables. Pre-emergence data are provided in TABLE III and post-emergence data are provided in TABLE IV, for compounds having the formula illustrated in TABLE I. Correspondingly, pre-emergence and post-emergence data, respectively, are set forth in TABLES V AND VI, for compounds having the formula illustrated in TABLE II.

The subject of test [6] is Amaranth pigweed (PW). Kind of test: Pre-emergence herbicide test. The class given is in vivo, Amaranthus retroflexus. The conditions noted are these: 336 h, 4 lb/acre, two weeks after treatment. On the procedure:
as §1, §2, §3, §4, §5, §6

Test [7] concerns Turnip (TP). Kind of test: Post-emergence herbicide test. The class given is in vivo, Brassica sp. The conditions noted are these: Brassica rapa, post-emergence, 336 h, two weeks after treatment; for pest or weed control at 4483.4 g/ha: 4 lb/acre; for pest or weed control at 2241.7 g/ha: 2 lb/acre. The method, boiled down: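 A greenhouse post-emergence herbicide test on turnip. Seeds were sown on the surface of potting soil in 3' plastic pots, lightly covered with screened soil and watered from below. Planting was timed so seedlings had 1 or 2 true leaves above the cotyledons at spraying, done in a hood with a fixed nozzle. Control or injury was scored by eye after two weeks.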

Test [8] concerns Cotton (CT). Briefly: Post-emergence herbicide test. The class given is in vivo, Gossypium hirsutum var. DPL smooth leaf. The conditions noted are these: Gossypium hirsutum, post-emergence, 336 h, two weeks after treatment; for pest or weed control at 4483.4 g/ha: 4 lb/acre. The method, boiled down: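 This greenhouse post-emergence test measured how well spray treatments controlled cotton. Seedlings of Gossypium hirsutum var. DPL smooth leaf, with expanded cotyledons and a first true leaf 1' in length, were sprayed with 50 ml formulations in a belt-fed spray hood. They were then returned to the greenhouse and watered only by sub-irrigation. Injury was scored visually as % control after two weeks.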

Test [9] concerns Johnson grass (JG). Kind of test: Pre-emergence herbicide test. It is filed as in vivo, Sorgum helepense. The conditions noted are these: Sorghum halepense, 336 h, 4 lb/acre, two weeks after treatment. The method, boiled down:
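Visual injury or control rating two weeks post-treatment, after pre-emergence spray of 8 or 4 lbs active per acre (38 gal/acre) onto pots sown the previous day. Greenhouse watering by sub-irrigation only.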

Test [10] has as its system Crabgrass (CG). Kind of test: Post-emergence herbicide test. It is filed as in vivo, Digitaria sanquinalis. The note with it: Digitaria sanguinalis, post-emergence, 336 h, two weeks after treatment; for pest or weed control at 4483.4 g/ha: 4 lb/acre. The gist of the method: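 Crabgrass (Digitaria sanquinalis) was surface seeded individually in 3' plastic pots of potting soil, covered with screened soil, and watered by sub-irrigation in greenhouse trays. Planting was staggered so seedlings reached the target stage together. Post-emergence sprays were applied in a hood with a removable belt and fixed nozzle, and control was visually rated two weeks after treatment.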

For test [11], the system named is Cotton (CT). Briefly: Pre-emergence herbicide test. It is filed as in vivo, Gossypium hirsutum var. DPL smooth leaf. The conditions noted are these: Gossypium hirsutum, 336 h, 4 lb/acre, two weeks after treatment. On the procedure:
Cotton (CT)--Gossypium hirsutum var. DPL smooth leaf
as §1, §2, §3, §4, §5, §6

In test [12] the test system is Johnson grass (JG). Kind of test: Post-emergence herbicide test. It is filed as in vivo, Sorgum helepense. The conditions noted are these: Sorghum halepense, 336 h, two weeks after treatment; for pest or weed control at 4483.4 g/ha: 4 lb/acre. The gist of the method: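 Visual injury or control scores taken 2 weeks after a post-emergence spray of pot-grown plants. Application was 8 lbs/acre (or 4 lbs/acre) in 38 gal/acre. Plants were held in the greenhouse with sub-irrigation only.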

Test [13] relates to Amaranth pigweed (PW). Briefly: Post-emergence herbicide test. The class given is in vivo, Amaranthus retroflexus. The conditions noted are these: 336 h, two weeks after treatment; for pest or weed control at 2241.7 g/ha: 2 lb/acre; for pest or weed control at 4483.4 g/ha: 4 lb/acre. On the procedure: Amaranth pigweed (PW)--Amaranthus retroflexus
as §1
Planting dates for the post-emergence phase were varied so that all seedlings would reach the desired stage of development simultaneously. The proper stage of seedling development for treatment in the post-emergence phase is as follows:
Pigweed and turnips: 1 or 2 true leaves above visible cotyledons.
as §2, §3, §4, §5, §6

Test [14] deals with Barnyard grass (BG). Briefly: Post-emergence herbicide test. It is filed as in vivo. The note with it: Echinochloa crus-galli, 336 h, two weeks after treatment; for pest or weed control at 4483.4 g/ha: 4 lb/acre. The gist of the method: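 Greenhouse pot-grown barnyard grass seedlings sprayed post-emergence at 8 lbs active compound per acre (some at 4 lbs/acre) in 38 gallons per acre, then sub-irrigated. Injury or control rated visually two weeks after treatment.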

Test [15] deals with Corn (CN). Kind of test: Post-emergence herbicide test. It is filed as in vivo. The conditions noted are these: Zea mays, 336 h, two weeks after treatment; for pest or weed control at 4483.4 g/ha: 4 lb/acre. The method, boiled down: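 Greenhouse seedlings grown in potting soil and sprayed post-emergence at 8 lbs compound/acre (formulations also made for 4 lbs/acre) in 38 gallons/acre spray volume. Watering by sub-irrigation only. Injury or control rated visually two weeks after treatment.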

On to `CCCC(C)c1nnc(NC(=O)NC)s1` (stereo not shown) [Example 83], for which the pest or weed control at 4483.4 g/ha came to 50% in [1]; 10% in test [2]; 40% in test [3]; 90% in test [4]; 10% in test [5]; 80% in test [6]. Further, the pest or weed control at 4483.4 g/ha in [7] was found to be 90%; in [8], 10%; in test [9], 60%; in test [10] it was 10%; in [11], 10%.

With `CNC(=O)Nc1nnc(SCCc2ccccc2)s1` [Example 53], the pest or weed control at 4483.4 g/ha in test [12] came out at 30%; in test [3] it was 100%; in test [13] it was 90%; in [14] it was 20%; in test [15], 100%; in [7], 90%. In addition, the pest or weed control at 4483.4 g/ha in [8] was found to be 100%; in test [10], 60%. Also, the pest or weed control at 2241.7 g/ha was 90% in test [13] and 70% in [7].

On to `CNC(=O)Nc1nnc(SCCC(C)C)s1` [Example 51], for which the pest or weed control at 4483.4 g/ha in test [12] turned out to be 40%; in [3], 100%; in test [13] it was 90%; in [14] it was 70%; in test [15], 50%; in test [7], 90%. Also, the pest or weed control at 4483.4 g/ha was determined as 100% in test [8] and 60% in test [10]. The pest or weed control at 2241.7 g/ha in test [13] stood at 90%; in test [7], 80%.

Regarding `CNC(=O)Nc1nnc(SCCC#N)s1` [Example 52], the pest or weed control at 4483.4 g/ha was found to be 20% in [12]; 100% in test [3]; 80% in [13]; 20% in [14]; 100% in [15]; 80% in test [7]. Besides, the pest or weed control at 4483.4 g/ha is 100% in [8] and 70% in test [10].

In the case of `CNC(=O)Nc1nnc(C(F)(F)Cl)s1` [Example 57], the pest or weed control at 8966.8 g/ha in test [12] (8 lb/acre) was determined as 40%; in test [3] (8 lb/acre), 100%; in test [13] (8 lb/acre), 90%; in test [14] (8 lb/acre), 40%; in [15] (8 lb/acre), 40%; in test [7] (8 lb/acre) it was 100%. Also, the pest or weed control at 8966.8 g/ha in test [8] (8 lb/acre) was 90%; in test [10] (8 lb/acre) it was 60%.

As to `CNC(=O)Nc1nnc(SCC(=O)OC)s1` [Example 56], the pest or weed control at 4483.4 g/ha in test [12] was determined as 20%; in test [3] it was 50%; in [13], 60%; in test [14], 20%; in test [15], 30%; in test [7], 70%. Moreover, the pest or weed control at 4483.4 g/ha was 60% in [8] and 30% in test [10].

For `CNC(=O)Nc1nnc(SCC(C)=O)s1` [Example 54], the pest or weed control at 4483.4 g/ha turned out to be 30% in test [12]; 100% in test [3]; 90% in test [13]; 30% in [14]; 30% in [15]; 80% in test [7]. For the same molecule, the pest or weed control at 4483.4 g/ha in test [8] is 90%; in test [10], 50%. In addition, the pest or weed control at 2241.7 g/ha in [13] and in test [7] was 60% in each case.

Regarding `CCC(C)=CCSc1nnc(NC(=O)NC)s1` [Example 50], the pest or weed control at 4483.4 g/ha in test [12] was found to be 30%; in test [3], 100%; in test [13] it was 90%; in test [14], 20%; in test [15], 30%; in test [7], 80%. Besides, the pest or weed control at 4483.4 g/ha is 80% in [8] and 50% in test [10]. The results for the pest or weed control at 2241.7 g/ha in [13] and in test [7] were 90% and 60%, respectively.

On to `CNC(=O)Nc1nnc(SCc2ccc([N+](=O)[O-])cc2)s1` [Example 55], for which the pest or weed control at 4483.4 g/ha in test [12] stood at 30%; in [3], 100%; in test [13], 90%; in test [14] it was 20%; in test [15], 20%; in test [7], 90%. The pest or weed control at 4483.4 g/ha came to 50% in [8] and 40% in [10]. In addition, the pest or weed control at 2241.7 g/ha in test [13] is 90%; in test [7] it was 60%.

One may read the pest or weed control as how far the test organism was held down.
